Test results as given in PubChem BioAssay (NCI).
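Test compounds were applied to cells in 96-well plates for 48 hours at 5 doses. At the TGI there is no net growth.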

Legend:
Test in all cases: growth of human tumour cells (NCI), 48 h
U251 CNS = tested on: U251 CNS
KM12 colon = tested on: KM12 colon
KM20L2 colon = tested on: KM20L2 colon
DMS 114 small cell lung = tested on: DMS 114 small cell lung
OVCAR-8 ovarian = tested on: OVCAR-8 ovarian
RXF-631 renal = tested on: RXF-631 renal
SK-MEL-2 melanoma = tested on: SK-MEL-2 melanoma
SN12C renal = tested on: SN12C renal
HCT-15 colon = tested on: HCT-15 colon
K-562 leukemia = tested on: K-562 leukemia
UACC-257 melanoma = tested on: UACC-257 melanoma
SF-295 CNS = tested on: SF-295 CNS
786-0 renal = tested on: 786-0 renal
SF-268 CNS = tested on: SF-268 CNS
NCI-H23 lung = tested on: NCI-H23 lung
UO-31 renal = tested on: UO-31 renal
HL-60(TB) leukemia = tested on: HL-60(TB) leukemia
SR leukemia = tested on: SR leukemia
A549 NSCLC = tested on: A549 NSCLC
HOP-18 NSCLC = tested on: HOP-18 NSCLC
IGROV1 ovarian = tested on: IGROV1 ovarian
OVCAR-4 ovarian = tested on: OVCAR-4 ovarian
ACHN renal = tested on: ACHN renal
COLO 205 colon = tested on: COLO 205 colon
EKVX NSCLC = tested on: EKVX NSCLC
SNB-19 CNS = tested on: SNB-19 CNS
OVCAR-5 ovarian = tested on: OVCAR-5 ovarian
SW-620 colon = tested on: SW-620 colon
SK-MEL-28 melanoma = tested on: SK-MEL-28 melanoma
M14 melanoma = tested on: M14 melanoma
HT29 colon = tested on: HT29 colon
CCRF-CEM leukemia = tested on: CCRF-CEM leukemia
HOP-62 NSCLC = tested on: HOP-62 NSCLC
NCI-H226 lung = tested on: NCI-H226 lung
SK-OV-3 ovarian = tested on: SK-OV-3 ovarian
UACC-62 melanoma = tested on: UACC-62 melanoma
CAKI-1 renal = tested on: CAKI-1 renal
SF-539 CNS = tested on: SF-539 CNS
DLD-1 colon = tested on: DLD-1 colon
MOLT-4 leukemia = tested on: MOLT-4 leukemia
M19-MEL melanoma = tested on: M19-MEL melanoma
OVCAR-3 ovarian = tested on: OVCAR-3 ovarian
HCT-116 colon = tested on: HCT-116 colon
HCC-2998 colon = tested on: HCC-2998 colon
LOX IMVI melanoma = tested on: LOX IMVI melanoma
NCI-H460 lung = tested on: NCI-H460 lung
HOP-92 NSCLC = tested on: HOP-92 NSCLC
MALME-3M melanoma = tested on: MALME-3M melanoma
RXF 393 renal = tested on: RXF 393 renal
SNB-78 CNS = tested on: SNB-78 CNS
LXFL 529 NSCLC = tested on: LXFL 529 NSCLC
SK-MEL-5 melanoma = tested on: SK-MEL-5 melanoma
XF 498 CNS = tested on: XF 498 CNS
RPMI-8226 leukemia = tested on: RPMI-8226 leukemia
NCI-H522 lung = tested on: NCI-H522 lung
SNB-75 CNS = tested on: SNB-75 CNS
TK-10 renal = tested on: TK-10 renal
A498 renal = tested on: A498 renal
DMS 273 small cell lung = tested on: DMS 273 small cell lung

Measured: TGI

Cc1ccc(C)c(NC(=O)CC/C(=N\NC(=O)C(N)=O)C(C)C(=O)c2ccc(O)cc2)c1 (stereo unspecified)
> 100 µM: U251 CNS | KM12 colon | KM20L2 colon | DMS 114 small cell lung | OVCAR-8 ovarian | RXF-631 renal | SK-MEL-2 melanoma | SN12C renal | HCT-15 colon | K-562 leukemia | UACC-257 melanoma | SF-295 CNS | 786-0 renal | SF-268 CNS | NCI-H23 lung | UO-31 renal | HL-60(TB) leukemia | SR leukemia | A549 NSCLC | HOP-18 NSCLC | IGROV1 ovarian | OVCAR-4 ovarian | ACHN renal | COLO 205 colon | EKVX NSCLC | SNB-19 CNS | OVCAR-5 ovarian | SW-620 colon | SK-MEL-28 melanoma | M14 melanoma | HT29 colon | CCRF-CEM leukemia | HOP-62 NSCLC | NCI-H226 lung | SK-OV-3 ovarian | UACC-62 melanoma | CAKI-1 renal | SF-539 CNS | DLD-1 colon | MOLT-4 leukemia | M19-MEL melanoma | OVCAR-3 ovarian | HCT-116 colon | HCC-2998 colon | LOX IMVI melanoma | NCI-H460 lung | HOP-92 NSCLC | MALME-3M melanoma | RXF 393 renal | SNB-78 CNS | LXFL 529 NSCLC | SK-MEL-5 melanoma

C1=Cc2nc1c(-c1ccncc1)c1ccc([n-]1)c(-c1ccncc1)c1nc(c(-c3ccncc3)c3ccc([n-]3)c2-c2ccncc2)C=C1.[Zn+2]
> 100 µM: U251 CNS | KM12 colon | KM20L2 colon | DMS 114 small cell lung | OVCAR-8 ovarian | RXF-631 renal | SK-MEL-2 melanoma | SN12C renal | HCT-15 colon | K-562 leukemia | XF 498 CNS | UACC-257 melanoma | SF-295 CNS | 786-0 renal | SF-268 CNS | NCI-H23 lung | UO-31 renal | HL-60(TB) leukemia | A549 NSCLC | IGROV1 ovarian | OVCAR-4 ovarian | ACHN renal | COLO 205 colon | EKVX NSCLC | SNB-19 CNS | OVCAR-5 ovarian | SW-620 colon | SK-MEL-28 melanoma | M14 melanoma | RPMI-8226 leukemia | HT29 colon | CCRF-CEM leukemia | HOP-62 NSCLC | NCI-H226 lung | SK-OV-3 ovarian | UACC-62 melanoma | CAKI-1 renal | SF-539 CNS | DLD-1 colon | MOLT-4 leukemia | M19-MEL melanoma | OVCAR-3 ovarian | HCT-116 colon | HCC-2998 colon | LOX IMVI melanoma | NCI-H460 lung | HOP-92 NSCLC | MALME-3M melanoma | NCI-H522 lung | SNB-75 CNS | SNB-78 CNS | LXFL 529 NSCLC | TK-10 renal | SK-MEL-5 melanoma

OCC12C3C4C1C1C2C3C41CO (stereo unspecified)
> 100 µM: U251 CNS | KM20L2 colon | DMS 114 small cell lung | OVCAR-8 ovarian | RXF-631 renal | SN12C renal | HCT-15 colon | K-562 leukemia | XF 498 CNS | UACC-257 melanoma | SF-295 CNS | 786-0 renal | SF-268 CNS | NCI-H23 lung | UO-31 renal | A549 NSCLC | HOP-18 NSCLC | IGROV1 ovarian | OVCAR-4 ovarian | ACHN renal | COLO 205 colon | EKVX NSCLC | SNB-19 CNS | OVCAR-5 ovarian | SW-620 colon | SK-MEL-28 melanoma | M14 melanoma | RPMI-8226 leukemia | HT29 colon | CCRF-CEM leukemia | HOP-62 NSCLC | NCI-H226 lung | SK-OV-3 ovarian | A498 renal | UACC-62 melanoma | CAKI-1 renal | SF-539 CNS | DLD-1 colon | MOLT-4 leukemia | M19-MEL melanoma | OVCAR-3 ovarian | HCC-2998 colon | LOX IMVI melanoma | NCI-H460 lung | HOP-92 NSCLC | MALME-3M melanoma | SNB-78 CNS | LXFL 529 NSCLC | TK-10 renal | SK-MEL-5 melanoma

Cc1cc(Cl)ccc1N=C1NC(=O)C(CC(=O)Nc2ccc(Cl)cc2Cl)S1 (stereo unspecified)
> 100 µM: U251 CNS | KM12 colon | KM20L2 colon | DMS 114 small cell lung | OVCAR-8 ovarian | RXF-631 renal | SK-MEL-2 melanoma | SN12C renal | HCT-15 colon | K-562 leukemia | XF 498 CNS | UACC-257 melanoma | SF-295 CNS | 786-0 renal | SF-268 CNS | NCI-H23 lung | UO-31 renal | DMS 273 small cell lung | A549 NSCLC | IGROV1 ovarian | OVCAR-4 ovarian | ACHN renal | COLO 205 colon | EKVX NSCLC | SNB-19 CNS | OVCAR-5 ovarian | SW-620 colon | SK-MEL-28 melanoma | M14 melanoma | RPMI-8226 leukemia | HT29 colon | CCRF-CEM leukemia | HOP-62 NSCLC | SK-OV-3 ovarian | UACC-62 melanoma | CAKI-1 renal | SF-539 CNS | DLD-1 colon | MOLT-4 leukemia | M19-MEL melanoma | OVCAR-3 ovarian | HCC-2998 colon | LOX IMVI melanoma | NCI-H460 lung | MALME-3M melanoma | SNB-75 CNS | SNB-78 CNS | LXFL 529 NSCLC | TK-10 renal | SK-MEL-5 melanoma
